In patent publication US20030135033A1, “Compounds and methods for the identification and/ or validation of a target” (priority 2002, published 2003):
d = 2'-deoxy (DNA); m = 2'-O-methyl

How the values were obtained:
[1] = tested on: MEK; test: Akt phosphorylation induced by PTEN GeneBlocs in 3Y1 cells in presence of MEK inhibitor; assay type: cell-based, rat; conditions: 30 nM PTEN 53 or 57, 48 h, 50 μM PD98059 30 min before lysis
Experimental: In this experiment two different antisense oligonucleotides (PTEN 53 and PTEN 57) were used together with further compounds, namely DMSO (D), Ly294002 (Ly) and PD98059 (PD) being an inhibitor for MEK-½ kinase. More particularly, the first test was carried out using the antisense oligonucleotide PTEN 53 in combination either with DMSO, LY or PD. The same experiment was carried out using PTEN 57 also directed against PTEN mRNA, and using GBC as defined above as a control antisense oligonucleotide. More particularly, 3Y1 cells on 10 cm plates were transfected in triplicates with 30 nM of the GeneBlocs PTEN 53, 57 or with GBC for 48 h. 30 min before lysis the cells were treated with 10 μM PI 3-kinase inhibitor LY294002 (LY), 50 μM MEK inhibitor PD98059 (PD) or with the vehicle DMSO (D). The positions of p110, phosphorylated Akt (P*-Akt) and PTEN are indicated on the right. […]
Pools of stably transfected HeLa cells in growth medium were stimulated with 200 nM 4-OHT in dimethylsulfoxide (DMSO) or with DMSO at 37° C. for 20 h. In experiments in which the effect of LY294002 or PD98059 was analyzed, the reagents were added in DMSO at 10 μg/ml or 50 μg/ml 30 min to 1 h before lysis. […]

[2] = tested on: PI 3-kinase; test: Akt phosphorylation induced by PTEN GeneBlocs in 3Y1 cells in presence of PI 3-kinase inhibitor; assay type: cell-based, rat; conditions: 30 nM PTEN 53 or 57, 48 h, 10 μM LY294002 30 min before lysis
[3] = tested on: Hela cells; test: Cell growth on matrigel; assay type: cell-based, human; conditions: 48 h transfection, then 48 to 72 h on matrigel, versus control GeneBloc
Source text: More particularly, a schematic pathway with PTEN inhibiting PI-3K activity is shown which would normally phosphorylate Akt thus leading to proliferation, survival and migration of HeLa cells as a model system for PTEN +/+ cells. FIG. 9 B presents the Western immunoblot analysis of an experiment studying the influence of PTEN specific antisense oligonucleotide or a control antisense nucleotide designated as mismatch GeneBloc™. PTEN is only present in the control sample, but is absent when PTEN-specific antisense oligonucleotides are used. The successful knockdown of PTEN causes phosphorylation of Akt, indicative of induction of the signalling pathway. […] Growth on matrigel is used as a surrogate in vitro assay for metastatic or invasive cell growth. […]
Loss of PTEN function has been correlated with an increased metastatic growth potential in late stage human cancers (Cantley, L. C. and Neel, B. G. (1999). New insights into tumor suppression: PTEN suppresses tumor formation by restraining the phosphoinositide 3-kinase/AKT pathway. Proc Natl Acad Sci U S A 96, 4240-4245; Ali, I. U. (2000). Gatekeeper for endometrium: the PTEN tumor suppressor gene. J Natl Cancer Inst 92, 861-863). […] HeLa cells expressing an inducible version of a constitutively active PI 3-kinase, p110* […] were analyzed in parallel. […]

COc1cccc(-c2cc(=O)c3ccccc3o2)c1N [PD98059]
increase in Akt phosphorylation induced by the PTEN GeneBlocs [1]: had no effect

O=c1cc(N2CCOCC2)oc2c(-c3ccccc3)cccc12 [LY294002, 2-(4-morpholinyl)-8-phenylchromone]
increase in Akt phosphorylation induced by the PTEN GeneBlocs [2]: completely abrogated

cuggaucAGAGTCAGTgguguca (CUGGAUCAGAGTCAGTGGUGUCA; sugars from the 5' end m7 d9 m7, backbone and methylation of C not given here; DNA gap phosphorothioate-linked, ends capped, inverted abasic or similar, further chemistry not fully specified) [PTEN 52, third generation antisense oligonucleotide (GeneBloc) against PTEN]
growth on matrigel [3]: increased potential to form network structures on matrigel and grew better
